Source: patent US9567339B2, “Primary carboxamides as BTK inhibitors” (AbbVie Inc., priority 2013, dated 2017)

Biological target: BTK, recombinant human catalytic domain (aa 393-659) (Homo sapiens (Human), UniProt Q06187)
Experiment: In vitro BTK kinase activity measured by time-resolved fluorescence resonance energy transfer (trFRET)
Assay type: biochemical
Details: trFRET, 0.001 mM ATP, biotin-TYR1 peptide substrate; read-out: Btk IC50

BTK, recombinant human catalytic domain (aa 393-659), sequence (Q06187 393-659): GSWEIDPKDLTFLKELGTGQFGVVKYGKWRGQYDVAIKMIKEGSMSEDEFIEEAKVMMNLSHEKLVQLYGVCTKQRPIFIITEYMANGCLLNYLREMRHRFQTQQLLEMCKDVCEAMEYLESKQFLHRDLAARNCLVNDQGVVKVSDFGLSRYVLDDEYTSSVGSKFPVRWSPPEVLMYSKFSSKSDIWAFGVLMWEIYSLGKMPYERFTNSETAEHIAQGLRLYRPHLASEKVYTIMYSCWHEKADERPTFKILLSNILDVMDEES

| Structure (SMILES) | IC50 [nM] |
| --- | --- |
| C=CC(=O)Nc1cccc(-c2ccc(C(N)=O)c3[nH]c(C4=CCN(S(C)(=O)=O)CC4)cc23)c1 [A.4.15] | < 100 |
| Cc1c(NC(=O)c2ccc(C3CC3)cc2)cccc1-c1ccc(C(N)=O)c2[nH]c(C3=CCN(S(C)(=O)=O)CC3)cc12 [A.4.16] | < 100 |
| Cc1c(NC(=O)c2nccs2)cccc1-c1ccc(C(N)=O)c2[nH]c(C3=CCN(S(C)(=O)=O)CC3)cc12 [A.4.17] | < 100 |
| Cc1c(-c2ccc(C(N)=O)c3[nH]c(C4=CCN(S(C)(=O)=O)CC4)cc23)cccc1-n1cnc2ccccc2c1=O [A.4.18] | < 100 |
| Cc1c(-c2ccc(C(N)=O)c3[nH]c(C4=CCN(S(C)(=O)=O)CC4)cc23)cccc1-n1cnc2ccc(F)cc2c1=O [A.4.19] | < 100 |
| NC(=O)c1ccc(-c2ccccc2N)c2cc[nH]c12 [A.5.1, 4-(2-aminophenyl)-1H-indole-7-carboxamide] | 1000 to 10000 |
| C=CC(=O)Nc1cccc(-c2ccc(C(N)=O)c3[nH]ccc23)c1 [A.5.2] | 100 to 1000 |
| NC(=O)c1ccc(-c2ccnc(N)c2)c2cc[nH]c12 [A.5.3, 4-(2-aminopyridin-4-yl)-1H-indole-7-carboxamide] | 1000 to 10000 |
| NC(=O)c1ccc(-c2cncc(N)c2)c2cc[nH]c12 [A.5.4, 4-(5-aminopyridin-3-yl)-1H-indole-7-carboxamide] | 1000 to 10000 |
| Cc1c(NC(=O)c2ccc(C(C)(C)C)cc2)cccc1-c1ccc(C(N)=O)c2[nH]ccc12 [A.5.6] | 1000 to 10000 |
| N#CCNS(=O)(=O)c1cccc(-c2ccc(C(N)=O)c3[nH]ccc23)c1 [A.6.1] | 1000 to 10000 |
| CNc1cccc(-c2ccc(C(N)=O)c3[nH]ccc23)c1 [A.6.2] | 1000 to 10000 |
| Cc1c(NC(=O)c2ccc(C(C)(C)C)cc2)cccc1-c1ccc(C(N)=O)c2[nH]c(-c3cccnc3)cc12 [A.7.1] | < 100 |
| Cc1c(-c2ccc(C(N)=O)c3[nH]c(-c4cccnc4)cc23)cccc1-n1cnc2ccccc2c1=O [A.7.2] | < 100 |
| Cc1c(NC(=O)c2cc3c(s2)CCCC3)cccc1-c1ccc(C(N)=O)c2[nH]c(-c3cccnc3)cc12 [A.7.3] | < 100 |
| Cc1c(-c2ccc(C(N)=O)c3[nH]c(-c4cccnc4)cc23)cccc1N1Cc2ccccc2C1=O [A.7.4] | < 100 |
| Cc1ccc2c(c1)C(=O)N(c1cccc(-c3ccc(C(N)=O)c4[nH]c(-c5cccnc5)cc34)c1C)C2 [A.7.5] | < 100 |
| Cc1c(-c2ccc(C(N)=O)c3[nH]c(-c4cccnc4)cc23)cccc1N1Cc2ccc(F)cc2C1=O [A.7.6] | < 100 |
| Cc1ccc(NC(=O)c2nccs2)cc1-c1ccc(C(N)=O)c2[nH]c(-c3cccnc3)cc12 [A.7.7] | 1000 to 10000 |
| Cc1c(NC(=O)c2nccs2)cccc1-c1ccc(C(N)=O)c2[nH]c(-c3cccnc3)cc12 [A.7.8] | < 100 |
| Cc1ccc(-c2cc3c(-c4ccn[nH]4)ccc(C(N)=O)c3[nH]2)cc1 [A.8.1] | 100 to 1000 |
| Cc1ccc(-c2cc3c(-c4c(C)noc4C)ccc(C(N)=O)c3[nH]2)cc1 [A.8.2] | 100 to 1000 |
| Cc1ccc(-c2cc3c(-c4cccnc4)ccc(C(N)=O)c3[nH]2)cc1 [A.8.3] | 100 to 1000 |
| Cc1ccc(-c2cc3c(-c4ccncc4)ccc(C(N)=O)c3[nH]2)cc1 [A.8.4] | 100 to 1000 |
| CC(=O)c1ccc(-c2ccc(C(N)=O)c3[nH]c(-c4ccc(C)cc4)cc23)s1 [A.8.5] | 100 to 1000 |

| Structure (SMILES) | IC50 [nM] |
| --- | --- |
| Cc1ccc(-c2cc3c(-c4ccsc4)ccc(C(N)=O)c3[nH]2)cc1 [A.8.6] | 100 to 1000 |
| Cc1ccc(-c2cc3c(-c4cnn(C)c4)ccc(C(N)=O)c3[nH]2)cc1 [A.8.7] | 100 to 1000 |
| Cc1ccc(-c2cc3c(-c4ccn[nH]4)ccc(C(N)=O)c3[nH]2)cc1 [A.8.8] | 100 to 1000 |
| Cc1ccc(-c2cc3c(-c4cccs4)ccc(C(N)=O)c3[nH]2)cc1 [A.8.9] | 100 to 1000 |
| Cc1ccc(-c2cc3c(-c4ccsc4)ccc(C(N)=O)c3[nH]2)cc1 [A.8.10] | 100 to 1000 |
| NC(=O)c1ccc(-c2cncnc2)c2cc(-c3ccc(F)cc3)[nH]c12 [A.9.1] | 100 to 1000 |
| NC(=O)c1ccc(-c2cccnc2)c2cc(-c3ccc(F)cc3)[nH]c12 [A.9.2] | < 100 |
| Cc1noc(C)c1-c1ccc(C(N)=O)c2[nH]c(-c3ccc(F)cc3)cc12 [A.9.3] | 100 to 1000 |
| NC(=O)c1ccc(-c2ccncc2)c2cc(-c3ccc(F)cc3)[nH]c12 [A.9.4] | 100 to 1000 |
| NC(=O)c1ccc(-c2ccn[nH]2)c2cc(-c3ccc(F)cc3)[nH]c12 [A.9.5] | 100 to 1000 |
| Cc1c(-c2ccc(C(N)=O)c3[nH]c(-c4ccc(F)cc4)cc23)cccc1N1Cc2ccc(F)cc2C1=O [A.9.6] | < 100 |
| Cc1c(NC(=O)c2cc3c(s2)CCCC3)cccc1-c1ccc(C(N)=O)c2[nH]c(-c3ccc(F)cc3)cc12 [A.9.7] | 1000 to 10000 |
| Cc1c(-c2ccc(C(N)=O)c3[nH]c(-c4cnn(C)c4)cc23)cccc1-n1cnc2ccccc2c1=O [A.10.1] | < 100 |
| Cc1c(-c2ccc(C(N)=O)c3[nH]c(-c4cnn(C)c4)cc23)cccc1-n1cnc2ccc(F)cc2c1=O [A.10.2] | < 100 |
| Cc1c(-c2ccc(C(N)=O)c3[nH]c(-c4cnn(C)c4)cc23)cccc1N(C(=O)c1nccs1)C1COC1 [A.10.3, N-(3-(7-carbamoyl-2-(1-methyl-1H-pyrazol-4-yl)-1H-indol-4-yl)-2-methylphenyl)-N-(oxetan-3-yl)thiazole-2-carboxamide] | < 100 |
| Cc1c(NC(=O)c2cc3c(s2)CCCC3)cccc1-c1ccc(C(N)=O)c2[nH]c(-c3cnn(C)c3)cc12 [A.10.5] | < 100 |
| Cc1c(-c2ccc(C(N)=O)c3[nH]c(C4=CCOCC4)cc23)cccc1-n1cnc2ccccc2c1=O [A.11.1] | < 100 |
| Cc1c(-c2ccc(C(N)=O)c3[nH]c(C4=CCOCC4)cc23)cccc1-n1cnc2ccc(F)cc2c1=O [A.11.2] | < 100 |
| Cc1c(-c2ccc(C(N)=O)c3[nH]c(-c4ccc(F)cc4)cc23)cccc1-n1cnc2ccccc2c1=O [A.12.1] | < 100 |
| Cc1c(-c2ccc(C(N)=O)c3[nH]c(-c4cncnc4)cc23)cccc1-n1cnc2ccccc2c1=O [A.13.1] | 100 to 1000 |
| Cc1c(-c2ccc(C(N)=O)c3[nH]c(-c4cncnc4)cc23)cccc1-n1cnc2ccc(F)cc2c1=O [A.13.2] | 100 to 1000 |
| Cc1c(NC(=O)c2ccc(C(F)F)cc2)cccc1-c1ccc(C(N)=O)c2[nH]c(-c3cncnc3)cc12 [A.13.3] | 100 to 1000 |
| Cc1c(NC(=O)c2ccc(C3CC3)cc2)cccc1-c1ccc(C(N)=O)c2[nH]c(-c3cncnc3)cc12 [A.13.4] | 100 to 1000 |
| Cc1c(-c2ccc(C(N)=O)c3[nH]c(-c4cnn(CC(C)(C)O)c4)cc23)cccc1-n1cnc2ccc(F)cc2c1=O [A.14.1] | < 100 |
| Cn1cc(-c2cc3c(-c4cccc(-n5ccc6cc(C7CC7)cc(F)c6c5=O)c4CO)ccc(C(N)=O)c3[nH]2)cn1 [A.15.1] | < 100 |

| Structure (SMILES) | IC50 [nM] |
| --- | --- |
| NC(=O)c1ccc(-c2cccc(NC(=O)/C=C/C(=O)O)c2)c2cc[nH]c12 [C.1, (E)-4-((3-(7-Carbamoyl-1H-indol-4-yl)phenyl)amino)-4-oxobut-2-enoic acid] | 1000 to 10000 |
| COC(=O)/C=C/C(=O)Nc1cccc(-c2ccc(C(N)=O)c3[nH]ccc23)c1 [D.1, (E)-Methyl 4-((3-(7-carbamoyl-1H-indol-4-yl)phenyl)amino)-4-oxobut-2-enoate] | < 100 |
| CC#CC(=O)NCc1ccccc1-c1cc2c(-c3cccc(NC(=O)c4nccs4)c3C)ccc(C(N)=O)c2[nH]1 [D.1.1] | 1000 to 10000 |
| C=CC(=O)NCc1ccccc1-c1cc2c(-c3cccc(NC(=O)c4nccs4)c3C)ccc(C(N)=O)c2[nH]1 [D.1.2] | 1000 to 10000 |
| Cc1c(NC(=O)c2nccs2)cccc1-c1ccc(C(N)=O)c2[nH]c(-c3ccccc3CNC(=O)CC#N)cc12 [D.1.3] | 100 to 1000 |
| Cc1c(NC(=O)c2nccs2)cccc1-c1ccc(C(N)=O)c2[nH]c(-c3ccccc3CNC(=O)CCN(C)C)cc12 [D.1.4] | 100 to 1000 |
| Cc1c(NC(=O)c2nccs2)cccc1-c1ccc(C(N)=O)c2[nH]c(-c3ccccc3CNC(=O)CCN3CCCCC3)cc12 [D.1.5] | 1000 to 10000 |
| Cc1c(NC(=O)c2nccs2)cccc1-c1ccc(C(N)=O)c2[nH]c(-c3ccccc3CNC(=O)COc3ccccc3)cc12 [D.1.6] | 1000 to 10000 |
| Cc1c(NC(=O)c2nccs2)cccc1-c1ccc(C(N)=O)c2[nH]c(-c3ccccc3CNC(=O)COc3ccc(F)cc3)cc12 [D.1.7] | 1000 to 10000 |
| CCCC(=O)NCc1ccccc1-c1cc2c(-c3cccc(NC(=O)c4nccs4)c3C)ccc(C(N)=O)c2[nH]1 [D.1.8] | 1000 to 10000 |
| C/C=C/C(=O)NCc1ccccc1-c1cc2c(-c3cccc(NC(=O)c4nccs4)c3C)ccc(C(N)=O)c2[nH]1 [D.1.9] | 1000 to 10000 |
| C=C(C)C(=O)NCc1ccccc1-c1cc2c(-c3cccc(NC(=O)c4nccs4)c3C)ccc(C(N)=O)c2[nH]1 [D.1.10] | 1000 to 10000 |
| C#CC(=O)NCc1ccccc1-c1cc2c(-c3cccc(NC(=O)c4nccs4)c3C)ccc(C(N)=O)c2[nH]1 [D.1.11] | 100 to 1000 |
| NC(=O)c1ccc(-c2ccccc2NC(=O)Cn2sc3ccccc3c2=O)c2cc[nH]c12 [D.2.1] | 1000 to 10000 |
| Cc1c(NC(=O)c2nccs2)cccc1-c1ccc(C(N)=O)c2[nH]cc(NC(=O)CC#N)c12 [D.3.1] | 1000 to 10000 |
| C=CC(=O)Nc1c[nH]c2c(C(N)=O)ccc(-c3cccc(NC(=O)c4nccs4)c3C)c12 [D.3.2] | 1000 to 10000 |
| C/C=C/C(=O)Nc1c[nH]c2c(C(N)=O)ccc(-c3cccc(NC(=O)c4nccs4)c3C)c12 [D.3.3] | 1000 to 10000 |
| C=C(C)C(=O)Nc1c[nH]c2c(C(N)=O)ccc(-c3cccc(NC(=O)c4nccs4)c3C)c12 [D.3.4] | 1000 to 10000 |
| CC#CC(=O)Nc1c[nH]c2c(C(N)=O)ccc(-c3cccc(NC(=O)c4nccs4)c3C)c12 [D.3.5] | 1000 to 10000 |
| Cc1c(NC(=O)c2nccs2)cccc1-c1ccc(C(N)=O)c2[nH]cc(NC(=O)COc3ccc(F)cc3)c12 [D.3.6] | 1000 to 10000 |
| CNC(=O)/C=C/C(=O)Nc1cccc(-c2ccc(C(N)=O)c3[nH]ccc23)c1 [D.4.1] | 1000 to 10000 |
| CN(C)C(=O)/C=C/C(=O)Nc1cccc(-c2ccc(C(N)=O)c3[nH]ccc23)c1 [D.4.2] | 1000 to 10000 |
| CCNC(=O)/C=C/C(=O)Nc1cccc(-c2ccc(C(N)=O)c3[nH]ccc23)c1 [D.4.3] | 1000 to 10000 |
| NC(=O)c1ccc(-c2cccc(NC(=O)/C=C/C(=O)NC3CC3)c2)c2cc[nH]c12 [D.4.4] | 1000 to 10000 |
